Measurements: publication PMC2225448 (Structure(London, England:1993), 2007)
pKd: −log10 of the molar value.

Molecular target: T1, SOCS4/ElonginBC (Homo sapiens, UniProt Q15369+Q15370+Q8WXH5)
T1 construct: Human SOCS4 (amino acids 274–437); made in house; host or cells: E. coli BL21(DE3)
Assay: ITC binding of phosphotyrosine peptides to SOCS4/ElonginBC
Conditions: 50 mM HEPES pH 7.5, 150 mM NaCl, 1 mM DTT, 20°C; for KB × 10^5: association constant, ± curve fitting error

[1] = 0.3–0.4 mM peptide injected into 15 μM protein, single binding site model

T1 sequence (Q8WXH5 274-437): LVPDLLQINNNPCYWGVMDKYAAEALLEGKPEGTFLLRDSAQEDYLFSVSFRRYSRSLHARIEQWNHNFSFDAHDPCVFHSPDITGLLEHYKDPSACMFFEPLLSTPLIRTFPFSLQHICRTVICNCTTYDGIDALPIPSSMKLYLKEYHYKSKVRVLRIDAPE
T1 sequence (Q15369 17-112 partner limits assumed): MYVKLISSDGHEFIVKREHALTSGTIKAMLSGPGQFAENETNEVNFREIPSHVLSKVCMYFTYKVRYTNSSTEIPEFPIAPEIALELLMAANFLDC
T1 sequence (Q15370 whole entry partner, the tested form may be a part): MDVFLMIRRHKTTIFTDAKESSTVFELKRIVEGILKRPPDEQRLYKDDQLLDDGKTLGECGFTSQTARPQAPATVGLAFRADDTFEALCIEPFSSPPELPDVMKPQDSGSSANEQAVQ
From the text: Blank titrations were subtracted from binding data, and data were processed by using ORIGIN software provided with the instrument.

Row | KB × 10^5 | KD [1] | pKd [1] | SMILES
1 | 1.30 ± 0.16 10^5 M^−1 |  |  | CC[C@H](C)[C@H](NC(=O)[C@@H](NC(=O)[C@H](Cc1ccc(OP(=O)(O)O)cc1)NC(=O)[C@H](CCC(=O)O)NC(=O)[C@H](Cc1ccccc1)NC(=O)[C@H](CO)NC(=O)[C@H](C)N)[C@@H](C)O)C(=O)N[C@@H](CC(C)C)C(=O)N[C@@H](CC(=O)O)C(=O)N1CCC[C@H]1C(=O)N[C@@H](CO)C(=O)O [EpoR pY402]
2 | 3.43 ± 0.25 10^5 M^−1 | low micromolar | > 5.52 | CC(C)[C@H](NC(=O)[C@H](CCCCN)NC(=O)[C@H](Cc1ccc(O)cc1)NC(=O)[C@H](Cc1ccc(OP(=O)(O)O)cc1)NC(=O)[C@H](CCC(=O)O)NC(=O)[C@H](CCCCN)NC(=O)[C@H](CC(=O)O)NC(=O)[C@@H](N)CCC(N)=O)C(=O)N[C@@H](CCCCN)C(=O)N[C@@H](CCC(=O)O)C(=O)N1CCC[C@H]1C(=O)NCC(=O)O [JAK2 pY1007]
3 | 3.43 ± 0.24 10^5 M^−1 |  |  | CC[C@H](C)[C@H](NC(=O)[C@H](Cc1ccc(O)cc1)NC(=O)[C@@H](NC(=O)[C@H](Cc1ccc(OP(=O)(O)O)cc1)NC(=O)[C@H](CC(N)=O)NC(=O)[C@H](CC(N)=O)NC(=O)CNC(=O)[C@@H](N)CC(N)=O)C(C)C)C(=O)N[C@@H](CC(=O)O)C(=O)N1CCC[C@H]1C(=O)N[C@H](C(=O)O)[C@@H](C)O [KIT pY568]
